Reference: a melting point compilation (Tetko et al.; mined from patent text by program, amines drawn as free bases though some values may be those of a salt)

SMILES	melting point [°C]
CN(C)[C@H]1C[C@@H]2CN(C(=O)c3ccc(NC(=O)c4ccccc4-c4ccccc4)cc3)c3ccccc3N2C1	195 to 197
CC(C)=CC(O)C(Br)(Br)Br (stereo unspecified)	81.5 to 82
O=C(O)C(O)(c1ccc(F)cc1)c1ccc(F)cc1	133 to 136
CCCCNC(=O)N(Cc1ccccn1)C1CCN(c2ncnc3cc(OC)c(OC)cc23)CC1	162 to 164
CNC1C(O)CC2C3CCc4cc(OC(=O)C(C)(C)C)ccc4C3CCC21C (stereo unspecified)	196 to 199
O=C(O)Cn1cccc(NC(=O)OCc2ccccc2)c1=O	171 to 173
OCC(O)Cc1nccn1CCCCc1ccc(OCc2coc(/C=C/c3c(F)cccc3F)n2)cc1 (stereo unspecified)	123 to 125
O=C(O)CCC(NC(=O)C=Cc1ccco1)C(=O)O (stereo unspecified)	166 to 170
O=C(O)C1=Cc2cc(OCc3ccccc3)c(OCc3ccccc3)cc2CC1	173 to 176
O=C(c1ccc(F)cc1)c1cccc(C(=O)c2ccc(F)cc2)c1	178
CN(C)C=C(C(=O)c1ccccc1)C(=O)c1ccccc1	120
COc1cc2c(cc1OCCCBr)oc1cc(-c3ccccc3Cl)c3c(c12)C(=O)N(CCCBr)C3=O	180 to 182
CCCCCCc1ccc(-n2c(-c3ccc(C)cc3)cc(OC)c2-c2ccc(C)cc2)cc1	128 to 130
CCCN(C(=S)n1ccnc1)c1ccccc1Cl	59 to 61
Cc1ccc(-c2c(NS(=O)(=O)c3ccc(C(C)(C)C)cc3)ncnc2OCCOc2ccc(C(C)O)cc2)cc1 (stereo unspecified)	176 to 178
O=C(NCC1(c2ccccc2)CCCCC1)Nc1ccccc1	162 to 164
CC(C#N)(CCc1ccccc1C(F)(F)F)NC(=O)c1ccc(OC(F)(F)F)cc1 (stereo unspecified)	87 to 89
CC(C)(C)OC(=O)NCCCCn1c(=O)c2cccc3ncc(c1=O)n32	118 to 119
O=C1C=C(Nc2ccccc2)C(=O)c2nccnc21	203 to 205
C=CCCc1ccc(C#N)c(O)n1	122 to 125
ClCc1cccc(/C=C/c2cc(-c3ccsc3)cs2)c1	137 to 138
CCCc1c(OCCCCCCCOc2ccc(C(=O)c3cccc(C(=O)O)c3)cc2CCC(=O)O)ccc2c1OCCC2=O	152 to 153
CCCCNC(=O)NCc1ccc(Nc2n[nH]c3ncnc(Nc4cccc(Cl)c4)c23)cc1	217 to 218

SMILES	melting point [°C]
Cc1c(C(=O)Nc2ccc(N3CCC(N4CCOCC4)CC3)c(Cl)c2)cnn1-c1ccc(Cl)cc1	238 to 240
O=C1NCc2cc(-c3cnc4[nH]c(=O)n(CC5CCCCC5)c4n3)ccc21	337 to 339
CC(=O)S[C@H]1CC[C@H](/C=C/C=C/c2ccc(C(F)(F)F)cc2)CC1	113 to 115
CN1C2=C(CSC2)C(=O)Nc2ccccc21	196 to 198
C=CCc1cc(C=CNC(=O)OC)ccc1OCC(O)CNC(C)C (stereo unspecified)	128 to 129
O=C(CCl)c1scc(Br)c1Br	86 to 88
NS(=O)(=O)c1ccc(-c2cc(F)c(F)cc2-c2ccc(F)cc2)cc1	190 to 192
C=CCC1(C(C)CC(=O)O)C(=O)NC(=O)NC1=O (stereo unspecified)	200
NC(=O)CNC(=O)c1cccc(-c2ncnc3cc(Cc4cccc(C(F)(F)F)c4)sc23)c1	205 to 206
CCC(Sc1ccc(CCC(=O)O)c(C)c1)c1ccc2nc(-c3ccc(C(F)(F)F)cc3)sc2c1 (stereo unspecified)	105 to 108
Cc1c(C)c2c(c(C)c1NCc1ccc(Cl)cc1)C(c1ccc(C(C)C)cc1)C(C)(C)O2 (stereo unspecified)	93 to 94
C=CC1CCC2C3CC=C4CC(O)CCC4(C)C3CCC12C (stereo unspecified)	132 to 135
O=c1[nH]c(=O)n(C2CC(O)C(CO)O2)cc1C(I)=CI (stereo unspecified)	103 to 105
CCCc1c(OCC2(Sc3ccc(C(=O)CCC(=O)O)cc3)CCCCC2O)ccc(C(C)=O)c1O (stereo unspecified)	65 to 67
CN1CC(CCN2CCN(c3ccc(Cl)c(Cl)c3)CC2)OC1=O (stereo unspecified)	89 to 91
c1ccc(Cn2ncc3c(NCC4CCCCC4)c4ccccc4nc32)cc1	254 to 256
Cc1ccc(C(NCC(=O)Nc2c(C(C)C)cccc2C(C)C)c2ccccc2)cc1 (stereo unspecified)	165 to 166
OC1COC(c2ccc(Cl)cc2)OC1 (stereo unspecified)	95 to 100
COCc1cn(-c2cccc(C(F)(F)F)c2)nc(-c2ccnn2-c2ccccc2)c1=O	137 to 139
Cc1cc(=O)n2c3c(cc(C(OCc4ccccc4)(C(F)(F)F)C(F)(F)F)cc13)CC2	207 to 208
CN(C)c1ccc(C(=O)Nc2cc(C(=O)NCc3ccccc3)ccn2)cc1	160 to 165
CCCCc1cn2ccccc2c1S(=O)(=O)c1ccc(OCCCBr)cc1	119

The remaining lines, values ahead:

melting point [°C]	SMILES
120	Cc1cccc(COn2nnc3ccc(Cn4ccnc4)cc32)c1
189 to 191	O=C(NCc1cccnc1)c1cc2ccnc(Cl)c2[nH]1
265 to 267	Cc1cc(-c2n[nH]c(=O)c(O)c2O)ccc1O
140 to 145	CC(C)(C)CNc1cc(N2CCNCC2)nc(N2CCCC2)n1
180	CC1(O)C(CO)OC(n2cnc3c(N)ncnc32)C1(C)O (stereo unspecified)
142 to 143	CCOC(=O)Nc1cc(N(C(=O)OCC)S(=O)(=O)CC)c(Br)cc1F
99 to 100	Cc1c(NC(=O)CC(C)(C)C)cc2c(c1C)OC(C)(C)C2(O)CCc1ccccc1 (stereo unspecified)
204 to 206	COc1ccc(/C=C/c2c(Cl)cncc2Cl)c2cc(-c3ccncc3)oc12
145 to 149	O=c1c2ccccc2ccc2ccc(S(=O)(=O)C(F)(F)F)cc12
172 to 174	CC(=O)CCc1nc2c(N)nc3ccccc3c2n1CC(C)C
190 to 203	CCOC(=O)c1c(NC23CC4CC(CC(C4)C2)C3)n[nH]c1C
143 to 144	CCO[C@@H]1c2ccn3c(C)c(C)nc3c2N[C@H](c2ccccc2)[C@H]1O
199 to 200	COc1cccc(Sc2c(O)c3ccc(Cl)cc3[nH]c2=O)c1
135 to 138	Cn1ncc2c3cc(Cl)c(Cl)cc3n(C3OC(CO)C(O)C3O)c21 (stereo unspecified)
110	CCc1c(C)nc(-c2ncc([N+](=O)[O-])n2C)nc1C
258 to 260	CCCCc1nc2c(N)nc3cccnc3c2n1CCNC(=O)c1cccc(O)n1
138	CCOC(=O)Cn1cc(CC(=O)O)c2ccccc21
187 to 196	CCOc1ccc(N(C)C)cc1-c1ncc(C(=O)O)c(=O)[nH]1
149	CC(Oc1cc(-c2nn(C)c(OC(F)F)c2Cl)c(Cl)cc1Cl)C(=O)N(C)C (stereo unspecified)

melting point [°C]	SMILES
224 to 225	CC(=O)Nc1nc2c(Oc3cc(-c4ccc5c(c4)OC(C)(C)C5)ncn3)cccc2s1
155 to 156	COc1cc(-c2nn(C)c(C#N)c2C)c(F)cc1Cl
173	CCCc1cc2nc(=O)[nH]n2c(C)n1
> 360	CCN(CC)S(=O)(=O)c1cc2[nH]c(=O)c(=O)[nH]c2cc1[N+](=O)[O-]
166 to 169	CN1C(=O)C(Cc2ccccc2)Oc2ccc([N+](=O)[O-])cc21 (stereo unspecified)
202 to 204	COC(=O)c1cc(CCC2CNc3nc(NC(=O)C(C)(C)C)nc(O)c3C2)cn1[Si](C(C)C)(C(C)C)C(C)C (stereo unspecified)
221 to 223	COc1cc2c(cc1OC)C(c1ccc([N+](=O)[O-])c(C)c1)=NN(c1noc(=O)[nH]1)[C@H](C)C2
153 to 154	COc1ccccc1-c1c(CC(=O)O)n(C)c2ccc(Cl)cc12
80 to 84	Fc1ccc2c(c1)Cc1cccnc1-2
120 to 122	CCOC(=O)c1cc(NS(=O)(=O)c2cccnc2)ccc1Oc1cncc(Cl)c1
205 to 209	Cc1ccc2c(=O)cc(CS(C)=O)oc2c1C (stereo unspecified)
263 to 265	Cc1cc2c(C)nc(N)nc2o1
180 to 182	Cc1nc(N)c2nc(C)n(CCOCCNC(=O)C(C)C)c2c1C
200	CC(=O)Nc1nc2c(Oc3cc(N4CCN(C(C)c5ccc(F)cc5)CC4)ncn3)cccc2o1 (stereo unspecified)
112 to 114	COc1ccnc(CSc2nc3c(OC(F)F)c(OC)c(OC)cc3[nH]2)c1
> 275	COc1ccc(-c2nc(N)n3nc(-c4ccco4)nc3n2)cc1
207 to 209	NS(=O)(=O)c1cc(C(=O)CCCC(=O)O)cc2c1OCC2
154 to 155	Cc1oc(-c2ccccc2)nc1COc1ccc(COc2cc(CCC(=O)O)n(-c3ccccc3)n2)cc1
116 to 118	CCN1c2ncccc2C(=O)N(C)c2ccc(OC)nc21

melting point [°C]	SMILES
137	CCOC(=O)Nc1c(C(=O)OC)sc2cc(OC)ccc12
99.5 to 100	CCCCn1c(-c2ccc(OC)cc2)nc2c3ccccc3ccc21
158 to 160	CCOC(=O)c1c(-c2ccc(F)cc2)c2ccncc2c(=O)n1C
113 to 114	CCc1c(Nc2cc(C)cc(C)c2)nc(OC)nc1OC
185 to 187	Cc1cccc(C)c1NC(=O)c1ccc(C#N)cc1
244	CC(C)C(c1ccc(CC(N)=O)cc1)n1ccnc1 (stereo unspecified)
77.3 to 78.9	CCOP(=O)(OCC)c1c(C)c2c(c(C)c1-c1c(OC)ccc3ccccc13)COC2
72 to 74	COC(=O)c1ccc(/C=C(\C)c2ccc3c(c2)OC(C)(C)O3)cc1
163 to 164	Cc1oc(-c2ccc3ccccc3c2)nc1COc1ccc(C=O)cc1
280 to 282	COc1ccc(OC)c(-c2c(O)c3ccc(Cl)cc3[nH]c2=O)c1
73 to 74	COc1cc(OCC(F)(F)C(F)F)nc(Oc2cc(C(F)(F)F)nn2C)c1
187 to 188	Cc1nnc(-c2ccc3occ(-c4cc(Cl)ccc4F)c3c2)o1
> 250	O=c1[nH]cc(-c2ccncn2)cc1Br
183 to 184	Cc1sc(Br)c(C)c1C(=O)O
123 to 124	COc1cc(N)c(Cl)cc1C(=O)NCC1CCCN1C1CCCCC1 (stereo unspecified)
80 to 81	CCCCOC(=O)C=C(C)C=CC=C(C)C=Cc1c(C)cc(OC)c(C)c1C
239 to 241	CCN1CCC(c2cc3ccc(C)cc3c(=O)[nH]2)CC1
95 to 97	CCOC(=O)Cc1ccc2c(c1)C(=O)C(NC(=O)OC)CC2 (stereo unspecified)
